The values that follow come from ChEMBL document CHEMBL1151570, “Preparation and Properties of a fibrinogen receptor antagonist containing the Arg-Gly-Asp sequence and nitroxide radicals” (Bioorg Med Chem Lett, 1993).

Structures are written as SMILES.

For experiment [1], the target named is Integrin alpha-IIb/beta-3 (Homo sapiens, UniProt P05106+P08514). Nature of the experiment: Dissociation constant for platelet glycoprotein alphaIIb-beta3 integrin from human platelets.
For a further experiment, the species on record is Homo sapiens. Nature of the experiment: Compound was evaluated for in vitro inhibition of ADP-induced aggregation of human platelet rich plasma. The format is functional.

Chain of Integrin alpha-IIb/beta-3 (P05106 27-788 limits assumed): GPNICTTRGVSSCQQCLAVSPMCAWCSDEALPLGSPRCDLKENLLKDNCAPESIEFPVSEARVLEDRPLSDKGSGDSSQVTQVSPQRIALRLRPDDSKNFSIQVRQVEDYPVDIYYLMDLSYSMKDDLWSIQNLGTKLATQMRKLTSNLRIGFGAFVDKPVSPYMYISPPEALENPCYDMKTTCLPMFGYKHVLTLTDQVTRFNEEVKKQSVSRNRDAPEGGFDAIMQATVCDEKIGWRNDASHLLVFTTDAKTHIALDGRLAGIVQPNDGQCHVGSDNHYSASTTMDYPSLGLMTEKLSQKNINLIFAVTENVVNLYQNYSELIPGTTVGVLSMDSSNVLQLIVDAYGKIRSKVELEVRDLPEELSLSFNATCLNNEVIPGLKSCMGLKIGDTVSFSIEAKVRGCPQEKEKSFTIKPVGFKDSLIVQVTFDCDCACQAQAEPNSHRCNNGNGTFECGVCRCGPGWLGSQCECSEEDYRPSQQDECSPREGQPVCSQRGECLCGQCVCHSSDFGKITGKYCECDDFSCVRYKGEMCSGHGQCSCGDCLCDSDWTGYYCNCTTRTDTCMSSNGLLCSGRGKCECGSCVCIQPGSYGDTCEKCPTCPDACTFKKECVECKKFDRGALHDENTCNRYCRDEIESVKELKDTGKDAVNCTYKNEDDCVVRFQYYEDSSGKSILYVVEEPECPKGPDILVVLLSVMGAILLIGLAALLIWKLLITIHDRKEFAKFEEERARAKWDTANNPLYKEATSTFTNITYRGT
Chain of Integrin alpha-IIb/beta-3 (P08514 32-887 limits assumed): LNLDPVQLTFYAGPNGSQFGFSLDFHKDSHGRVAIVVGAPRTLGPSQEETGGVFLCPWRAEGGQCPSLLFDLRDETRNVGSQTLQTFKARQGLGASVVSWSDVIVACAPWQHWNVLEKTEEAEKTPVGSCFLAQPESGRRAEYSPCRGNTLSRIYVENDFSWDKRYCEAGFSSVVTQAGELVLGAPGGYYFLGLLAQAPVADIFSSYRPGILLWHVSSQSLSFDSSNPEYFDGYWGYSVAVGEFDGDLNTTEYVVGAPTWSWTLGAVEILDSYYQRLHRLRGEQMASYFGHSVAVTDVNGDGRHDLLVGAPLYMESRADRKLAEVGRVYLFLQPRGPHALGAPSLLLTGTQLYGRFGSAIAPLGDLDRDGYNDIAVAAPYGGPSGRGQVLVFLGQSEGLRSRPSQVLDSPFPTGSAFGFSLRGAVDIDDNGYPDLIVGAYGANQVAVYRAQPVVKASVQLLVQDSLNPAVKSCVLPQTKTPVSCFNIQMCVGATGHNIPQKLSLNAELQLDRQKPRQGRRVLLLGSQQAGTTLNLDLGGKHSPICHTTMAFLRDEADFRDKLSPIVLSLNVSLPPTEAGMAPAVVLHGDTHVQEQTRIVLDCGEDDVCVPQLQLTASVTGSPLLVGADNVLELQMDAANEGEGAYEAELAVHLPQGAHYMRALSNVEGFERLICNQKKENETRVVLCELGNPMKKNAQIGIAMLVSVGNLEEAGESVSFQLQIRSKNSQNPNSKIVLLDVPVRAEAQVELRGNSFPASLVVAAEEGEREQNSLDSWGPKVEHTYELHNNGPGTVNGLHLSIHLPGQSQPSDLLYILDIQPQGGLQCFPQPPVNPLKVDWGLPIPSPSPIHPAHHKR
Chain of Integrin alpha-IIb/beta-3 (P08514 891-1039 limits assumed): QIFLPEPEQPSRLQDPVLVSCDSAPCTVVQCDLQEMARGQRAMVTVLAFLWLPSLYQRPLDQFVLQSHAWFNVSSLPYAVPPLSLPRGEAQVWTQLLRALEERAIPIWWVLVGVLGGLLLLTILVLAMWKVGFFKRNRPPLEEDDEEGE

For the compound `CN(C(=O)c1ccccc1SCC(=O)NC1CC(C)(C)N([O])C(C)(C)C1)[C@@H](CCCN=C(N)N)C(=O)NCC(=O)N[C@@H](C(=O)O)C(=O)Nc1ccccc1SCC(=O)NC1CC(C)(C)N([O])C(C)(C)C1`, the affinity in experiment [1] corresponds to a Ki of 0.11 µM. In the experiment listed under Homo sapiens, this compound yielded a half-inhibitory concentration (IC50) of 1.02 µM.

As for `CC1(C)CC(NC(=O)CBr)CC(C)(C)N1[O]`, the Ki in experiment [1] is above 1000 µM. In the experiment filed under Homo sapiens, this compound registered an IC50 above 200 µM.

The term Ki denotes the dissociation constant of the complex between target and ligand, obtained from inhibition or displacement. Low readings indicate a stronger hold on the target, high ones a looser hold on the target. The IC50 is the concentration needed to halve the response being measured. Higher therefore signals a need for much substance.
